Data from ChEMBL document CHEMBL1201862, “PubChem BioAssay data set” (2004).
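Results reflect a 48-hour exposure of cells in 96-well plates to compound at five concentrations. Here, GI50 denotes the concentration required for 50% inhibition of growth.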 Activity calls are given as the source filed them. No stated cut-off is given here; in the data, active = GI50 up to about 1.1 µM and inactive = higher.

Tests used:
Assay in all cases: NCI-60 cell line screen, 48 h
LOX IMVI = tested on: LOX IMVI
TK-10 = tested on: TK-10
DLD-1 = tested on: DLD-1
HOP-92 = tested on: HOP-92
OVCAR-5 = tested on: OVCAR-5
SK-MEL-5 = tested on: SK-MEL-5
CCRF-CEM = tested on: CCRF-CEM
UACC-62 = tested on: UACC-62
RPMI-8226 = tested on: RPMI-8226
NCI-H23 = tested on: NCI-H23
ACHN = tested on: ACHN
A498 = tested on: A498
A549 = tested on: A549
SW-620 = tested on: SW-620
HT-29 = tested on: HT-29
HOP-18 = tested on: HOP-18
COLO 205 = tested on: COLO 205
RXF 393 = tested on: RXF 393
KM12 = tested on: KM12
SNB-78 = tested on: SNB-78
HCT-15 = tested on: HCT-15
M14 = tested on: M14
HCC 2998 = tested on: HCC 2998
UACC-257 = tested on: UACC-257
SK-MEL-28 = tested on: SK-MEL-28
SK-OV-3 = tested on: SK-OV-3
IGROV-1 = tested on: IGROV-1
Malme-3M = tested on: Malme-3M
SN12C = tested on: SN12C
OVCAR-4 = tested on: OVCAR-4
DMS-114 = tested on: DMS-114
M19-MEL = tested on: M19-MEL
EKVX = tested on: EKVX
U-251 = tested on: U-251
LXFL 529 = tested on: LXFL 529
K562 = tested on: K562
DMS-273 = tested on: DMS-273
HCT-116 = tested on: HCT-116
CAKI-1 = tested on: CAKI-1
786-0 = tested on: 786-0
UO-31 = tested on: UO-31
HOP-62 = tested on: HOP-62
OVCAR-3 = tested on: OVCAR-3
SF-539 = tested on: SF-539
SNB-75 = tested on: SNB-75
NCI-H226 = tested on: NCI-H226
HL-60 = tested on: HL-60
SF-295 = tested on: SF-295
SF-268 = tested on: SF-268
MOLT-4 = tested on: MOLT-4
KM-20L2 = tested on: KM-20L2
NCI-H460 = tested on: NCI-H460
SK-MEL-2 = tested on: SK-MEL-2
OVCAR-8 = tested on: OVCAR-8
SNB-19 = tested on: SNB-19
NCI-H522 = tested on: NCI-H522
SR = tested on: SR
XF498 = tested on: XF498

In the case of COC1(C)C(=O)N2C1N(C(=O)OC(C)(C)C)CC2(C)C (stereo not given), the GI50 (LOX IMVI) is reported as 23.5 µM (inactive), the GI50 (TK-10) is reported as > 100 µM (inactive) and the GI50 (DLD-1) is reported as > 100 µM (inactive). The GI50 (HOP-92) was > 100 µM (inactive), the GI50 (OVCAR-5) was > 100 µM (inactive) and the GI50 (SK-MEL-5) was > 100 µM (inactive). For the same compound, the GI50 (CCRF-CEM) was > 100 µM (inactive), the GI50 (UACC-62) was > 100 µM (inactive) and the GI50 (RPMI-8226) was 44.8 µM (inactive). The GI50 (NCI-H23) was > 100 µM (inactive), the GI50 (ACHN) was > 100 µM (inactive) and the GI50 (A498) was > 100 µM (inactive). The GI50 (A549) was > 100 µM (inactive), the GI50 (SW-620) was 17.5 µM (inactive) and the GI50 (HT-29) was > 100 µM (inactive). The GI50 (HOP-18) was > 100 µM (inactive), the GI50 (COLO 205) was 36.5 µM (inactive) and the GI50 (RXF 393) was > 100 µM (inactive). For the same compound, the GI50 (KM12) was > 100 µM (inactive), the GI50 (SNB-78) was > 100 µM (inactive) and the GI50 (HCT-15) was 63.2 µM. The GI50 (M14) was > 100 µM (inactive), the GI50 (HCC 2998) was > 100 µM (inactive) and the GI50 (UACC-257) was > 100 µM (inactive). The GI50 (SK-MEL-28) was > 100 µM (inactive), the GI50 (SK-OV-3) was > 100 µM (inactive) and the GI50 (IGROV-1) was > 100 µM (inactive). The GI50 (Malme-3M) was > 100 µM (inactive), the GI50 (SN12C) was > 100 µM (inactive) and the GI50 (OVCAR-4) was > 100 µM (inactive). The GI50 (DMS-114) was 42.8 µM (inactive), the GI50 (M19-MEL) was > 100 µM (inactive) and the GI50 (EKVX) was > 100 µM (inactive). For the same compound, the GI50 (U-251) was > 100 µM (inactive), the GI50 (LXFL 529) was > 100 µM (inactive) and the GI50 (K562) was > 100 µM (inactive). The GI50 (DMS-273) was > 100 µM (inactive), the GI50 (HCT-116) was 96.4 µM (inactive) and the GI50 (CAKI-1) was > 100 µM (inactive). The GI50 (786-0) was > 100 µM (inactive), the GI50 (UO-31) was > 100 µM (inactive) and the GI50 (HOP-62) was > 100 µM (inactive). For the same compound, the GI50 (OVCAR-3) was > 100 µM (inactive), the GI50 (SF-539) was > 100 µM (inactive) and the GI50 (SNB-75) was > 100 µM (inactive). For the same compound, the GI50 (NCI-H226) was > 100 µM (inactive), the GI50 (HL-60) was > 100 µM (inactive) and the GI50 (SF-295) was > 100 µM (inactive). For the same compound, the GI50 (SF-268) was > 100 µM (inactive), the GI50 (MOLT-4) was > 100 µM (inactive) and the GI50 (KM-20L2) was > 100 µM (inactive). For the same compound, the GI50 (NCI-H460) was 81.3 µM (inactive), the GI50 (SK-MEL-2) was > 100 µM (inactive) and the GI50 (OVCAR-8) was > 100 µM (inactive). The GI50 (SNB-19) was > 100 µM (inactive) and the GI50 (NCI-H522) was > 100 µM (inactive).

[N-]=[N+]=NC(c1cn(C2CC(O)C(CO)O2)c(=O)[nH]c1=O)C(Br)Br (stereo not given) was tested, and the GI50 (LOX IMVI) was > 100 µM (inactive), the GI50 (TK-10) was > 100 µM (inactive) and the GI50 (DLD-1) was > 100 µM (inactive). For the same compound, the GI50 (HOP-92) was > 100 µM (inactive), the GI50 (OVCAR-5) was > 100 µM (inactive) and the GI50 (SK-MEL-5) was > 100 µM (inactive). The GI50 (CCRF-CEM) was > 100 µM (inactive), the GI50 (SR) was > 100 µM (inactive) and the GI50 (UACC-62) was > 100 µM (inactive). The GI50 (RPMI-8226) was > 100 µM (inactive), the GI50 (NCI-H23) was > 100 µM (inactive) and the GI50 (ACHN) was > 100 µM (inactive). For the same compound, the GI50 (A549) was > 100 µM (inactive), the GI50 (SW-620) was > 100 µM (inactive) and the GI50 (HT-29) was > 100 µM (inactive). For the same compound, the GI50 (HOP-18) was > 100 µM (inactive), the GI50 (COLO 205) was > 100 µM (inactive) and the GI50 (RXF 393) was > 100 µM (inactive). For the same compound, the GI50 (KM12) was > 100 µM (inactive), the GI50 (SNB-78) was > 100 µM (inactive) and the GI50 (HCT-15) was over 100 µM. The GI50 (M14) was > 100 µM (inactive), the GI50 (HCC 2998) was > 100 µM (inactive) and the GI50 (SK-MEL-28) was > 100 µM (inactive). The GI50 (SK-OV-3) was > 100 µM (inactive), the GI50 (IGROV-1) was > 100 µM (inactive) and the GI50 (Malme-3M) was > 100 µM (inactive). The GI50 (SN12C) was > 100 µM (inactive), the GI50 (DMS-114) was > 100 µM (inactive) and the GI50 (M19-MEL) was > 100 µM (inactive). For the same compound, the GI50 (EKVX) was > 100 µM (inactive), the GI50 (U-251) was > 100 µM (inactive) and the GI50 (LXFL 529) was > 100 µM (inactive). For the same compound, the GI50 (K562) was > 100 µM (inactive), the GI50 (DMS-273) was > 100 µM (inactive) and the GI50 (HCT-116) was > 100 µM (inactive). The GI50 (CAKI-1) was > 100 µM (inactive), the GI50 (786-0) was > 100 µM (inactive) and the GI50 (UO-31) was > 100 µM (inactive). The GI50 (HOP-62) was > 100 µM (inactive), the GI50 (OVCAR-3) was > 100 µM (inactive) and the GI50 (SF-539) was > 100 µM (inactive). The GI50 (SNB-75) was > 100 µM (inactive), the GI50 (NCI-H226) was > 100 µM (inactive) and the GI50 (HL-60) was > 100 µM (inactive). The GI50 (SF-295) was > 100 µM (inactive), the GI50 (MOLT-4) was > 100 µM (inactive) and the GI50 (KM-20L2) was > 100 µM (inactive). For the same compound, the GI50 (NCI-H460) was > 100 µM (inactive), the GI50 (SK-MEL-2) was > 100 µM (inactive) and the GI50 (OVCAR-8) was > 100 µM (inactive). For the same compound, the GI50 (SNB-19) was > 100 µM (inactive) and the GI50 (NCI-H522) was > 100 µM (inactive).

For COc1cc(C2C(C(=O)Nc3ccccc3)=C(C)NC(C)=C2C(=O)Nc2ccccc2)ccc1O, the GI50 (LOX IMVI) was > 10 µM (inactive), the GI50 (TK-10) was > 100 µM (inactive) and the GI50 (DLD-1) was 29.1 µM (inactive). The GI50 (HOP-92) was 19.3 µM (inactive), the GI50 (OVCAR-5) was > 100 µM (inactive) and the GI50 (SR) was 25.9 µM (inactive). The GI50 (RPMI-8226) was 26.4 µM (inactive), the GI50 (NCI-H23) was 39.5 µM (inactive) and the GI50 (ACHN) was 98.9 µM (inactive). The GI50 (A498) was > 100 µM (inactive), the GI50 (A549) was 40.6 µM (inactive) and the GI50 (SW-620) was 37.9 µM (inactive). For the same compound, the GI50 (HT-29) was 18.7 µM (inactive), the GI50 (HOP-18) was 99.3 µM (inactive) and the GI50 (COLO 205) was 24.2 µM (inactive). The GI50 (RXF 393) was > 100 µM (inactive), the GI50 (KM12) was 31 µM (inactive) and the GI50 (SNB-78) was 53.5 µM (inactive). The GI50 (HCT-15) was 43.5 µM, the GI50 (HCC 2998) was 27 µM (inactive) and the GI50 (UACC-257) was 61.9 µM (inactive). The GI50 (SK-MEL-28) was 46.7 µM (inactive), the GI50 (IGROV-1) was 37 µM (inactive) and the GI50 (Malme-3M) was 41.2 µM (inactive). For the same compound, the GI50 (SN12C) was 39.5 µM (inactive), the GI50 (OVCAR-4) was 29.1 µM (inactive) and the GI50 (DMS-114) was 42 µM (inactive). For the same compound, the GI50 (M19-MEL) was 36.2 µM (inactive), the GI50 (EKVX) was 83.4 µM (inactive) and the GI50 (U-251) was 48.9 µM (inactive). For the same compound, the GI50 (LXFL 529) was 24.3 µM (inactive), the GI50 (K562) was 30.6 µM (inactive) and the GI50 (HCT-116) was 34.5 µM (inactive). For the same compound, the GI50 (786-0) was 37.8 µM (inactive), the GI50 (UO-31) was 97.1 µM (inactive) and the GI50 (HOP-62) was > 100 µM (inactive). The GI50 (OVCAR-3) was 23 µM (inactive), the GI50 (SF-539) was 21.6 µM (inactive) and the GI50 (SNB-75) was 13.6 µM (inactive). The GI50 (NCI-H226) was 49.3 µM (inactive), the GI50 (HL-60) was 22.4 µM (inactive) and the GI50 (SF-295) was 49.9 µM (inactive). For the same compound, the GI50 (SF-268) was > 100 µM (inactive), the GI50 (MOLT-4) was 27.4 µM (inactive) and the GI50 (KM-20L2) was 20.1 µM (inactive). For the same compound, the GI50 (NCI-H460) was 43.7 µM (inactive), the GI50 (SK-MEL-2) was 28.6 µM (inactive) and the GI50 (OVCAR-8) was 30.1 µM (inactive). For the same compound, the GI50 (SNB-19) was 33.7 µM (inactive), the GI50 (NCI-H522) was > 10 µM (inactive) and the GI50 (XF498) was 34.2 µM (inactive).
